This is an account of results in patent US9351952B2, “Use of hesperetin” (NATURAL MEDICINE INSTITUTE OF ZHEJIANG YANGSHENGTANG CO., …, priority 2010, dated 2016).

SMILES strings stand for the structures.

The subject of the assay is skin microcirculation in domestic rabbits. The experiment in a line: Effect of topical application of hesperetin on skin microcirculation by Laser Doppler Flowmetery. In kind it is in vivo, Oryctolagus cuniculus. The settings on record: smearing the backs of rabbits with samples of different concentrations. The text has this: The experimental method for promoting microcirculation: Male Oryctolagus cuniculus weighted 3.0-3.5 kg were used. After shaving the hair on the back of the Oryctolagus cuniculus, 10 points for testing blood flow were marked with a marker pen on the hairless skin of the rabbit, i.e. 5 points for each of the right side and the left side, and aorta was avoided when drawing the points. Before smearing the sample, the basic values of blood flow at the 10 points of rabbits of each experimental group were determined by Laser Doppler Flowmetery. […] 2% solution was orally administrated by a similar method in a volume 100 times compared to the volume used in the group wherein the 2% solution was administered by smearing. After administration, the blood flow value was determined every hour at the same point by Laser Doppler Flowmetery for 24 h, and the variation index of blood flow was calculated to evaluate the effect of hesperetin on the back blood of rabbits, wherein a higher variation index of blood flow indicates a better effect of promoting microcirculation. The experimental results were statistically analyzed by SPSS11.5 software, t-test was applied to the measured data to evaluate the experimental results. When P<0.1, the data may be regarded as statistically significant. In the results of Table 1, all the time points at with P<0.1 in the 24-h test were listed.

Regarding `COc1ccc([C@@H]2CC(=O)c3c(O)cc(O)cc3O2)cc1O` [Hesperetin], the “blood flow in skin microvessels as compared to the blank side” value was “significantly enhanced”.
